# Patent US20130158122A1, “EP2 Agonist from Non-Prostanoid Structures Designed as PGE2 Antagonists” (ALLERGAN, INC., priority 2010, published 2013)
# Test system: Beagle dogs
# Assay: Intraocular pressure studies in dogs (applanation pneumatonometry)
# Format: in vivo
# Details: conscious Beagle dogs, topical to one eye, approx. 35 μl, IOP before and at 2, 4, 6 hours on each day of 5 day study; vehicle in other eye
# Experimental: Measurement of intraocular pressure studies in dogs will involve applanation pneumatonometry performed in Beagle dogs of both sexes. The animals will remain conscious throughout the study and will be gently restrained by hand. Compound 4-{[5-chloro-2-(4-chloro-benzyloxy)-benzoylamino]-methyl}-benzoic acid will be administered topically to one eye using a dropper bottle to deliver approximately a 35 μl volume, the other eye received vehicle (1% polysorbate 80 in 5 mM Tris HCl) as a control. Proparacaine at 0.25% was used for corneal anesthesia during tonometry. Intraocular pressure will be determined just before drug administration and at 2, 4, 6 hours thereafter on each day of the 5 day study. Measurement of ocular surface hyperemia will be performed immediately before each of the intraocular pressure readings. Ocular surface hyperemia grading will be semi-quantitative and assessed according to a 5 point scoring scale used for clinical evaluations: 0=none; 0.5=trace; 1=mild; 2=moderate; and 3=severe.
smiles,measurement,value
O=C(O)c1ccc(CNC(=O)c2cc(Cl)ccc2OCc2ccc(Cl)cc2)cc1 [4-{[5-chloro-2-(4-chloro-benzyloxy)-benzoylamino]-methyl}-benzoic acid],intraocular pressure,significantly reduce intraocular pressure
